Here are results for 18 compounds from US20210253557A1, “SUBSTITUTED TRIAZOLE DERIVATIVES AND USES THEREOF” (Bayer Pharma Aktiengesellschaft, priority 2017, published 2021).

Test [1] addresses T1, human V1a receptor (Homo sapiens, UniProt P37288).
T1 construct: expressed in transfected cells; host or cells: CHO K1 (ATCC), also stably transfected with a modified aequorin
Briefly: Cellular in vitro assay for determining vasopressin receptor activity (V1a, aequorin luminescence). The format is cell-based. The conditions noted are these: for IC50: CHO cell line transfected with the human V1a receptor, [Arg8]-vasopressin at EC50 concentration, read-out: IC50 hV1a; for ratio IC50 hV2/hV1a: selectivity ratio of IC50 hV2 to IC50 hV1a.

Test [2] deals with T2, human V2 receptor (Homo sapiens, UniProt P30518).
T2 construct: expressed in transfected cells; host or cells: CHO K1 (ATCC) expressing firefly luciferase under a CRE-responsive promoter
T2 sequence (P30518 whole entry): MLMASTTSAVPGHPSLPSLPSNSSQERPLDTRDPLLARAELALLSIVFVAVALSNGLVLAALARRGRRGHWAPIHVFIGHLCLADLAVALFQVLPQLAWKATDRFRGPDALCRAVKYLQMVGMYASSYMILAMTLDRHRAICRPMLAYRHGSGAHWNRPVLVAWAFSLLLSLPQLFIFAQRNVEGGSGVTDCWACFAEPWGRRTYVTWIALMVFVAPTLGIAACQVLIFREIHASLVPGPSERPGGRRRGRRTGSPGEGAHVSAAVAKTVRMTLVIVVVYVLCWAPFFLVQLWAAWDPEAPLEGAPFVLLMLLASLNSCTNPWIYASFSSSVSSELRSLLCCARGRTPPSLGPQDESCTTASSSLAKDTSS
Briefly: Cellular in vitro assay for determining vasopressin receptor activity (V2, CRE-luciferase). The format is cell-based. The conditions noted are these: CHO cell line transfected with the human V2 receptor; [Arg8]-vasopressin at EC50 concentration; read-out: IC50 hV2. In a few lines:
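Antagonism was measured as inhibition of a 3-h, EC50-level [Arg8]-vasopressin stimulation, with compounds tested at several concentrations, yielding IC50 values. The read-out was cAMP-driven CRE-luciferase luminescence after lysis, in recombinant CHO K1 cells carrying human V2 receptor. Cells were seeded in 2% FCS DMEM/F12 one day earlier.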

The structures appear in SMILES notation.

T1 sequence (P37288 whole entry): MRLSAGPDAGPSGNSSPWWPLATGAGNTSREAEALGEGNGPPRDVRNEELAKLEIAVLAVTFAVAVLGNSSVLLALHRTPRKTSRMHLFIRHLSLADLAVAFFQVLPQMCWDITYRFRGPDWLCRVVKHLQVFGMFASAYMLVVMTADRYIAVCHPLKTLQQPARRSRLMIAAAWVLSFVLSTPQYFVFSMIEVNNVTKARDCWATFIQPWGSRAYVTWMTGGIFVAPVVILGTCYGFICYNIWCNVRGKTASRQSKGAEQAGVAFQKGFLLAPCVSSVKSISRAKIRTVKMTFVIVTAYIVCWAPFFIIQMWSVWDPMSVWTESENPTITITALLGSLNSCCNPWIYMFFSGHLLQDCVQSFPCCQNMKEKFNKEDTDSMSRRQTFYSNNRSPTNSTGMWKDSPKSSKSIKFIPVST

What is called IC50 is the concentration that gives 50% inhibition. `C[C@H](OC(N)=O)c1nc(Cn2nc(-c3ccc(Cl)cc3)n(C[C@H](O)C(F)(F)F)c2=O)nn1-c1cnccc1Cl` [Example 21, (1S)-1-[3-({3-(4-Chlorophenyl)-5-oxo-4-[(2S)-3,3,3-trifluoro-2-hydroxypropyl]-4,5-dihydro-1H-1,2,4-triazol-1-yl}methyl)-1-(4-chloropyridin-3-yl)-1H-1,2,4-triazol-5-yl]ethyl Carbamate]: in test [1], the IC50 is 1.9 nM and the “ratio IC50 hV2/hV1a” value was 9.2. The IC50 in test [2] came out at 17.5 nM.

For the compound `C[C@H](OC(N)=O)c1nc(Cn2nc(-c3ccc(Cl)cc3)n(C[C@H](O)C(F)(F)F)c2=O)nn1-c1ncccc1OC(F)(F)F` [Example 22, (1S)-1-{3-({3-(4-Chlorophenyl)-5-oxo-4-[(2S)-3,3,3-trifluoro-2-hydroxypropyl]-4,5-dihydro-1H-1,2,4-triazol-1-yl}methyl)-1-[3-(trifluoromethoxy)pyridin-2-yl]-1H-1,2,4-triazol-5-yl}ethyl Carbamate], the IC50 came out at 9.95 nM in test [1] and 144 nM in test [2]. The “ratio IC50 hV2/hV1a” value in test [1] is 14.4.

As to `C[C@@H](OC(N)=O)c1nc(Cn2nc(-c3ccc(Cl)cc3)n(C[C@H](O)C(F)(F)F)c2=O)nn1-c1ncccc1OC(F)(F)F` [Example 23, (1R)-1-{3-({3-(4-Chlorophenyl)-5-oxo-4-[(2S)-3,3,3-trifluoro-2-hydroxypropyl]-4,5-dihydro-1H-1,2,4-triazol-1-yl}methyl)-1-[3-(trifluoromethoxy)pyridin-2-yl]-1H-1,2,4-triazol-5-yl}ethyl Carbamate], the IC50 in test [1] was 5.4 nM; in test [2], 285 nM. For the same compound, the “ratio IC50 hV2/hV1a” value in test [1] is on record as 52.8.

As to `NC(=O)OCc1nc(Cn2nc(-c3ccc(Cl)cc3)n(C[C@H](O)C(F)(F)F)c2=O)nn1-c1cccc(Cl)c1` [Example 24, [1-(3-Chlorophenyl)-3-({3-(4-chlorophenyl)-5-oxo-4-[(2S)-3,3,3-trifluoro-2-hydroxypropyl]-4,5-dihydro-1H-1,2,4-triazol-1-yl}methyl)-1H-1,2,4-triazol-5-yl]methyl Carbamate], in test [1], the IC50 was 25.9 nM and the “ratio IC50 hV2/hV1a” value worked out at 0.2. In addition, the IC50 in test [2] was 5.29 nM.

For `NC(=O)OCc1nc(Cn2nc(-c3ccc(Cl)cc3)n(C[C@H](OC(N)=O)C(F)(F)F)c2=O)nn1-c1cccc(Cl)c1` [Example 25, (2S)-3-[1-({5-[(Carbamoyloxy)methyl]-1-(3-chlorophenyl)-1H-1,2,4-triazol-3-yl}methyl)-3-(4-chlorophenyl)-5-oxo-1,5-dihydro-4H-1,2,4-triazol-4-yl]-1,1,1-trifluoropropan-2-yl Carbamate], in test [1], the IC50 is 26.6 nM and the “ratio IC50 hV2/hV1a” value is reported as 0.1. Further, the IC50 in test [2] was found to be 2.26 nM.

`NC(=O)OCc1nc(Cn2nc(-c3ccc(Cl)cc3)n(C[C@H](O)C(F)(F)F)c2=O)nn1-c1cccc(F)c1` [Example 26, [3-({3-(4-Chlorophenyl)-5-oxo-4-[(2S)-3,3,3-trifluoro-2-hydroxypropyl]-4,5-dihydro-1H-1,2,4-triazol-1-yl}methyl)-1-(3-fluorophenyl)-1H-1,2,4-triazol-5-yl]methyl Carbamate]: in test [1], the IC50 came to 5.29 nM and the “ratio IC50 hV2/hV1a” value is 0.9. Besides, the IC50 in test [2] amounted to 4.82 nM.

On to `COc1ccccc1-n1nc(Cn2nc(-c3ccc(Cl)cc3)n(C[C@H](O)C(F)(F)F)c2=O)nc1COC(N)=O` [Example 27, [3-({3-(4-Chlorophenyl)-5-oxo-4-[(2S)-3,3,3-trifluoro-2-hydroxypropyl]-4,5-dihydro-1H-1,2,4-triazol-1-yl}methyl)-1-(2-methoxyphenyl)-1H-1,2,4-triazol-5-yl]methyl Carbamate], for which the IC50 in test [1] stood at 1.78 nM; in test [2], 3.11 nM. In addition, the “ratio IC50 hV2/hV1a” value in test [1] was 1.8.

As to `NC(=O)OCc1nc(Cn2nc(-c3ccc(Cl)cc3)n(C[C@H](O)C(F)(F)F)c2=O)nn1-c1ccccc1Cl` [Example 28, [1-(2-Chlorophenyl)-3-({3-(4-chlorophenyl)-5-oxo-4-[(2S)-3,3,3-trifluoro-2-hydroxypropyl]-4,5-dihydro-1H-1,2,4-triazol-1-yl}methyl)-1H-1,2,4-triazol-5-yl]methyl Carbamate], the IC50 was 0.43 nM in test [1] and 2.57 nM in test [2]. The “ratio IC50 hV2/hV1a” value in test [1] was 6.0.

On to `NC(=O)OCc1nc(Cn2nc(-c3ccc(Cl)cc3)n(C[C@H](OC(N)=O)C(F)(F)F)c2=O)nn1-c1ccccc1Cl` [Example 29, (2S)-3-[1-({5-[(Carbamoyloxy)methyl]-1-(2-chlorophenyl)-1H-1,2,4-triazol-3-yl}methyl)-3-(4-chlorophenyl)-5-oxo-1,5-dihydro-4H-1,2,4-triazol-4-yl]-1,1,1-trifluoropropan-2-yl Carbamate], for which the figures for the IC50 in test [1] and in test [2] were 1.29 nM and 2.93 nM, respectively. Moreover, the “ratio IC50 hV2/hV1a” value in test [1] is 2.3.

Regarding `C[C@H](OC(N)=O)c1nc(Cn2nc(-c3ccc(Cl)cc3)n(C[C@H](O)C(F)(F)F)c2=O)nn1-c1cccc(F)c1` [Example 30, (1S)-1-[3-({3-(4-Chlorophenyl)-5-oxo-4-[(2S)-3,3,3-trifluoro-2-hydroxypropyl]-4,5-dihydro-1H-1,2,4-triazol-1-yl}methyl)-1-(3-fluorophenyl)-1H-1,2,4-triazol-5-yl]ethyl Carbamate], the IC50 turned out to be 36.6 nM in test [1] and 3.81 nM in test [2]. Also, in test [1], the “ratio IC50 hV2/hV1a” value was found to be 0.1.

As for `C[C@@H](OC(N)=O)c1nc(Cn2nc(-c3ccc(Cl)cc3)n(C[C@H](O)C(F)(F)F)c2=O)nn1-c1ccccc1Cl` [Example 31, (1R)-1-[1-(2-Chlorophenyl)-3-({3-(4-chlorophenyl)-5-oxo-4-[(2S)-3,3,3-trifluoro-2-hydroxypropyl]-4,5-dihydro-1H-1,2,4-triazol-1-yl}methyl)-1H-1,2,4-triazol-5-yl]ethyl Carbamate], in test [1], the IC50 stood at 0.94 nM and the “ratio IC50 hV2/hV1a” value was 7.9. Also, the IC50 in test [2] was 7.42 nM.

Regarding `C[C@@H](OC(N)=O)c1nc(Cn2nc(-c3ccc(Cl)cc3)n(C[C@H](OC(N)=O)C(F)(F)F)c2=O)nn1-c1ccccc1Cl` [Example 32, (2S)-3-[1-({5-[(1R)-1-(Carbamoyloxy)ethyl]-1-(2-chlorophenyl)-1H-1,2,4-triazol-3-yl}methyl)-3-(4-chlorophenyl)-5-oxo-1,5-dihydro-4H-1,2,4-triazol-4-yl]-1,1,1-trifluoropropan-2-yl Carbamate], the values for the IC50 in test [1] and in test [2] were 0.51 nM and 10.3 nM, respectively. Further, the “ratio IC50 hV2/hV1a” value in test [1] worked out at 20.3.

As to `C[C@H](OC(N)=O)c1nc(Cn2nc(-c3ccc(Cl)cc3)n(C[C@H](O)C(F)(F)F)c2=O)nn1-c1ccccc1Cl` [Example 33, (1S)-1-[1-(2-Chlorophenyl)-3-({3-(4-chlorophenyl)-5-oxo-4-[(2S)-3,3,3-trifluoro-2-hydroxypropyl]-4,5-dihydro-1H-1,2,4-triazol-1-yl}methyl)-1H-1,2,4-triazol-5-yl]ethyl Carbamate], the IC50 in test [1] was determined as 0.99 nM; in test [2], 3.63 nM. For the same compound, the “ratio IC50 hV2/hV1a” value in test [1] is 3.7.

In the case of `C[C@H](OC(N)=O)c1nc(Cn2nc(-c3ccc(Cl)cc3)n(C[C@H](OC(N)=O)C(F)(F)F)c2=O)nn1-c1ccccc1Cl` [Example 34, (2S)-3-[1-({5-[(1S)-1-(Carbamoyloxy)ethyl]-1-(2-chlorophenyl)-1H-1,2,4-triazol-3-yl}methyl)-3-(4-chlorophenyl)-5-oxo-1,5-dihydro-4H-1,2,4-triazol-4-yl]-1,1,1-trifluoropropan-2-yl Carbamate], in test [1], the IC50 was determined as 0.64 nM and the “ratio IC50 hV2/hV1a” value was determined as 4.3. The IC50 in test [2] was found to be 2.75 nM.

Turning to `C[C@H](OC(N)=O)c1nc(Cn2nc(-c3ccc(Cl)cc3)n(C[C@H](O)C(F)(F)F)c2=O)nn1-c1cccc(Cl)c1` [Example 35, (1S)-1-[1-(3-Chlorophenyl)-3-({3-(4-chlorophenyl)-5-oxo-4-[(2S)-3,3,3-trifluoro-2-hydroxypropyl]-4,5-dihydro-1H-1,2,4-triazol-1-yl}methyl)-1H-1,2,4-triazol-5-yl]ethyl Carbamate], the IC50 was 41.4 nM in test [1] and 1.99 nM in test [2].

On to `C[C@@H](OC(N)=O)c1nc(Cn2nc(-c3ccc(Cl)cc3)n(C[C@H](O)C(F)(F)F)c2=O)nn1-c1cccc(Cl)c1` [Example 36, (1R)-1-[1-(3-Chlorophenyl)-3-({3-(4-chlorophenyl)-5-oxo-4-[(2S)-3,3,3-trifluoro-2-hydroxypropyl]-4,5-dihydro-1H-1,2,4-triazol-1-yl}methyl)-1H-1,2,4-triazol-5-yl]ethyl Carbamate], for which, in test [1], the IC50 amounted to 28.6 nM and the “ratio IC50 hV2/hV1a” value is given as 0.1. Besides, the IC50 in test [2] turned out to be 1.81 nM.

In the case of `Cc1ccccc1-n1nc(Cn2nc(-c3ccc(Cl)cc3)n(C[C@H](O)C(F)(F)F)c2=O)nc1COC(N)=O` [Example 37, [3-({3-(4-Chlorophenyl)-5-oxo-4-[(2S)-3,3,3-trifluoro-2-hydroxypropyl]-4,5-dihydro-1H-1,2,4-triazol-1-yl}methyl)-1-(2-methylphenyl)-1H-1,2,4-triazol-5-yl]methyl Carbamate], in test [1], the IC50 stood at 0.77 nM and the “ratio IC50 hV2/hV1a” value is reported as 8.6. For the same compound, in test [2], the half-inhibitory concentration (IC50) was 6.62 nM.

`Cc1ccccc1-n1nc(Cn2nc(-c3ccc(Cl)cc3)n(C[C@H](OC(N)=O)C(F)(F)F)c2=O)nc1COC(N)=O` [Example 38, (2S)-3-[1-({5-[(Carbamoyloxy)methyl]-1-(2-methylphenyl)-1H-1,2,4-triazol-3-yl}methyl)-3-(4-chlorophenyl)-5-oxo-1,5-dihydro-4H-1,2,4-triazol-4-yl]-1,1,1-trifluoropropan-2-yl Carbamate]: in test [1], the IC50 is 0.65 nM and the “ratio IC50 hV2/hV1a” value is recorded as 5.5. The half-maximal inhibitory concentration (IC50) in test [2] came out at 3.56 nM.
